B1: MCM, wild-type (S. islandicus) (natural protein, UniProt F0NF15 1-686, looked up)
chain: MEIPSKQIDYRDLFIEFLTTFKNTNNQNKYIERINELIAYRKKSLIVEFSDILSFNENLAYEIINNTKIVLPILEGALYDHILQLDPTYQRDIEKVHVRIVGIPRVIELRKIRSTDIDKLITIDGILVKVTPVKERIYKATYKHIHPDCMQEFEWPEDEEMPEILEMPTICPKCGKPGQFRLIPEKTKLIDWQKAVIQERPEEVPSGQLPRQLEIILEDDLVDSARPGDRVKVTGILEIKQDSPIKRGSRAVFDIYMKVSSIEVSQKVLDEVTISEEDEKKIKDLAKDPWIRDRIIASIAPSIYGHWELKEALALALFGGVPKVLEDTRIRGDIHILIIGDPGTAKSQMLQFISRVAPRAVYTTGKGSTAAGLTAAVVREKGTGEYYLEAGALVLADGGIAVIDEIDKMRDEDRVAIHEAMEQQTVSIAKAGIVAKLNARAAVIAAGNPKFGRYITERPVSDNINLPPTILSRFDLIFILKDQPGEQDRELANYILDVHSGKSTKNIIDIDTLRKYIAYARKYIIPKITSEAKNLITDFFVEMRKKSSETPDSPILITPRQLEALIRISEAYAKMALKTEVTREDAERAINIMRLFLESVGVDMESGKIDIDTIMTGKPKSAREKMMKILEIIDSLAVSSECAKVKDILKEAQQVGIEKSNIEKLLTDMRKSGIIYEAKPECYKKV

Legend:
[1] = target: MCM ΔC (Saccharolobus islandicus, UniProt F0NF15); test: colorimetric phosphate release ATPase assay; type: biochemical; conditions: 1 mM ATP, 10 mM magnesium acetate, pH 7.9, 50 °C
[2] = target: the molecule itself; test: SEC

Row | Molecule | colorimetric phosphate release ATPase assay [1] | stoichiometry N [2]
1 | Nc1ncnc2c1ncn2[C@@H]1O[C@H](COP(=O)(O)OP(=O)(O)OP(=O)(O)O)[C@@H](O)[C@H]1O [ATP] | loss of the wH domain results in a marked activation of the ATPase activity | –
2 | B1 | – | 6
